From PMC9774334 (ACS Omega, 2022)

Experiments:
TmaFuc = biological target: T1, TmaFuc (Thermotoga maritima, UniProt Q9WYE2); test: p-nitrophenol release at […] nm; format: biochemical; conditions: 2 mM substrate
T1 sequence (Q9WYE2 1-449): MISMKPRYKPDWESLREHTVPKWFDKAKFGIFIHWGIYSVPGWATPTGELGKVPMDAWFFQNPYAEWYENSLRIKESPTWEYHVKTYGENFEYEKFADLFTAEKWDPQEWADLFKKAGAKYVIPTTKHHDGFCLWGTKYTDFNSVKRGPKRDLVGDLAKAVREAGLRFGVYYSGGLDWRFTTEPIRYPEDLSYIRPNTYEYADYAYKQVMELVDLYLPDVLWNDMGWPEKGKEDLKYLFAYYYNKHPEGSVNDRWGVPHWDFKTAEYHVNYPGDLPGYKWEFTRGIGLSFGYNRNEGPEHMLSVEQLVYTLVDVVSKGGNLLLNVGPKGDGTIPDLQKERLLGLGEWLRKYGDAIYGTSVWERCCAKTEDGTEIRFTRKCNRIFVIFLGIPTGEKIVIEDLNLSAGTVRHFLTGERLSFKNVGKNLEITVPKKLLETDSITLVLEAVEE

ClAgl29B = biological target: T2, ClAgl29B (Cecembia lonarensis, UniProt K1KV82); test: X-ray crystal structure, […] Å, soaking; format: binding; conditions: active site; crystal pH 3.5, 30 mM L-glucose soak
T2 sequence (K1KV82 21-586): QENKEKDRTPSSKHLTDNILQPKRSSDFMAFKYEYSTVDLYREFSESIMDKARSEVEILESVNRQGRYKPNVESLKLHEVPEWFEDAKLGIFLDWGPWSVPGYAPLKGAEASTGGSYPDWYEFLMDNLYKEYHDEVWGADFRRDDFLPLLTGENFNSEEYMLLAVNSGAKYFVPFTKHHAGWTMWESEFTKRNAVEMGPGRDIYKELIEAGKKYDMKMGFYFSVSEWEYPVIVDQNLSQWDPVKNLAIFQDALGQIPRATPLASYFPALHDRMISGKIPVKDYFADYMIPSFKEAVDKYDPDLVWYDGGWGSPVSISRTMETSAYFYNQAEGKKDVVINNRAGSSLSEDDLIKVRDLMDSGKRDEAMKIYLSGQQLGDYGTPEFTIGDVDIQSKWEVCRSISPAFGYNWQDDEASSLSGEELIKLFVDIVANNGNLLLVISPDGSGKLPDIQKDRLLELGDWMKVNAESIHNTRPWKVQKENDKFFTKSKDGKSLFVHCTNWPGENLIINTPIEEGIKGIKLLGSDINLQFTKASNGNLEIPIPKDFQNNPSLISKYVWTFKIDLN

Row | Compound | p-nitrophenol release at 400 nm (TmaFuc) | X-ray crystal structure, 1.7 Å, soaking (ClAgl29B)
1 | C[C@@H]1O[C@@H](Oc2ccc([N+](=O)[O-])cc2)[C@@H](O)[C@H](O)[C@@H]1O [PNP α-L-Fuc] | TmaFuc hydrolyzed PNP α-L-Fuc | 
2 | OC[C@@H]1O[C@H](O)[C@@H](O)[C@H](O)[C@H]1O [β-L-glucose] |  | The ClAgl29B complex obtained with β-L-glucose by a soaking experiment
